# From patent publication US20250186391A1, “ORAL COMPLEMENT FACTOR D INHIBITORS” (BioCryst Pharmaceuticals, Inc., priority 2019, published 2025)
# Biological target: Factor D (Homo sapiens (Human), UniProt P00746)
# Test: Factor D esterolytic assay
# Type: biochemical
# Details: Z-Lys-SBzl substrate, 100 mM HEPES, 500 mM NaCl, pH 7.5, 10% DMSO; tested a minimum of three times; read-out: Measured Ki (IC50) Value for Compounds: IC50
# Outline: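 Buffer was 100 mM HEPES, 500 mM NaCl, pH 7.5 with 10% DMSO. Compound and Factor D were combined, then Z-Lys-SBzl (1.29 mM) was added either at once or following room-temperature incubation. Rates came from DTNB colour at 405 nm minus 690 nm over 600 s, with percent inhibition giving IC50 over at least three tests.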
# Chain of Factor D (P00746 26-253): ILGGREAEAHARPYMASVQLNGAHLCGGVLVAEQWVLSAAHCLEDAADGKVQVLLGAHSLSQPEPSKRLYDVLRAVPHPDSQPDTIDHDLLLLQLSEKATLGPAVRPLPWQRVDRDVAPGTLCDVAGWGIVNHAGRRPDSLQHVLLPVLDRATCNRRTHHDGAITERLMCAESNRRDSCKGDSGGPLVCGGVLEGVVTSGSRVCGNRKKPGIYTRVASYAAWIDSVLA
row,Structure (SMILES),IC50
1,"Cc1ccc(CC(=O)O)c(OCc2coc3c2cc(-c2cccc(CN)c2)c2occc23)c1 [Compound 230c, 2-(2-((5-(3-(aminomethyl)phenyl)benzo[1,2-b:3,4-b′]difuran-3-yl)methoxy)-4-methylphenyl)acetic acid]",< 1 µM
2,"COc1ccc(CC(=O)O)c(OCc2coc3c2cc(-c2cccc(CN)c2)c2occc23)c1 [Compound 231c, 2-(2-((5-(3-(aminomethyl)phenyl)benzo[1,2-b:3,4-b′]difuran-3-yl)methoxy)-4-methoxyphenyl)acetic acid]",< 1 µM
3,"NCc1cccc(-c2cc3c(COc4ccccc4CC(=O)O)csc3c3occc23)c1 [Compound 232h, 2-(2-((4-(3-(aminomethyl)phenyl)thieno[3,2-g]benzofuran-6-yl)methoxy)phenyl)acetic acid]",< 1 µM
4,"Cc1oc2c(cc(-c3cccc(CN)c3)c3occc32)c1COc1ccccc1CC(=O)O [Compound 233h, 2-(2-((5-(3-(aminomethyl)phenyl)-2-methylbenzo[1,2-b:3,4-b′]difuran-3-yl)methoxy)phenyl)acetic acid]",< 1 µM
5,"COc1ccc(CC(=O)O)c(OCc2c(C(F)F)oc3c(C4CC4)cc(-c4cccc(CN)c4)cc23)c1 [Compound 234d, 2-(2-((5-(3-(aminomethyl)phenyl)-7-cyclopropyl-2-(difluoromethyl)benzofuran-3-yl)methoxy)-4-methoxyphenyl)acetic acid]",< 1 µM
6,"NCc1cccc(-c2cc(N)c3oc(COc4ccccc4CC(=O)O)cc3c2)c1 [Compound 235g, 2-(2-((7-amino-5-(3-(aminomethyl)phenyl)benzofuran-2-yl)methoxy)phenyl)acetic acid]",> 10 µM
7,"COc1ccc(CC(=O)O)c(OCc2c(C(F)F)oc3c(NCC4CC4)cc(-c4cccc(CN)c4)cc23)c1 [Compound 236c, 2-(2-((5-(3-(aminomethyl)phenyl)-7-((cyclopropylmethyl)amino)-2-(difluoromethyl)benzofuran-3-yl)methoxy)-4-methoxyphenyl)acetic acid]",< 1 µM
8,"COc1cc(-c2cccc(CN)c2)cc2c(COc3c(C)cccc3CC(=O)O)coc12 [Compound 237c, 2-(2-((5-(3-(aminomethyl)phenyl)-7-methoxybenzofuran-3-yl)methoxy)-3-methylphenyl)acetic acid]",< 1 µM
9,"COCCc1oc2ccc(-c3cccc(CN)c3)cc2c1COc1cc(OC)ccc1CC(=O)O [Compound 238c, 2-(2-((5-(3-(aminomethyl)phenyl)-2-(2-methoxyethyl)benzofuran-3-yl)methoxy)-4-methoxyphenyl)acetic acid]",< 1 µM
10,"COc1ccc(CC(=O)O)c(OCc2c(C)oc3ccc(-c4cc(F)cc(CN)c4)cc23)c1 [Compound 239c, 2-(2-((5-(3-(aminomethyl)-5-fluorophenyl)-2-methylbenzofuran-3-yl)methoxy)-4-methoxyphenyl)acetic acid]",< 1 µM
11,"COc1ccc(CC(=O)O)c(OCc2c(C)oc3ccc(-c4cccc([C@H](C)N)c4)cc23)c1 [Compound 240b, (S)-2-(2-((5-(3-(1-aminoethyl)phenyl)-2-methylbenzofuran-3-yl)methoxy)-4-methoxyphenyl)acetic acid]",< 1 µM
12,"COc1ccc(CC(=O)O)c(OCc2c(C)oc3ccc(-c4cccc([C@H](N)CO)c4)cc23)c1 [Compound 241c, (S)-2-(2-((5-(3-(1-amino-2-hydroxyethyl)phenyl)-2-methylbenzofuran-3-yl)methoxy)-4-methoxyphenyl)acetic acid]",< 1 µM
13,"COc1ccc(CC(=O)O)c(OCc2c(C)oc3ccc(-c4cccc([C@@H](C)N)c4)cc23)c1 [Compound 242b, (R)-2-(2-((5-(3-(1-aminoethyl)phenyl)-2-methylbenzofuran-3-yl)methoxy)-4-methoxyphenyl)acetic acid]",< 1 µM
14,"CC(C)n1nc(COc2ccccc2CC(=O)O)c2cc(-c3cc(O)cc(CN)c3)ccc21 [Compound 243g, 2-(2-((5-(3-(aminomethyl)-5-hydroxyphenyl)-1-isopropyl-1H-indazol-3-yl)methoxy)phenyl)acetic acid]",< 1 µM
15,"CC(C)n1nc(COc2ccccc2CC(=O)O)c2cc(-c3cc(CN)cc(OCc4cccnc4)c3)ccc21 [Compound 243h, 2-(2-((5-(3-(aminomethyl)-5-(pyridin-3-ylmethoxy)phenyl)-1-isopropyl-1H-indazol-3-yl)methoxy)phenyl)acetic acid]",> 10 µM
16,"COc1ccc(CC(=O)O)c(OCc2c(C)oc3ccc(-c4cccc(CN)c4O)cc23)c1 [Compound 244d, 2-(2-((5-(3-(aminomethyl)-2-hydroxyphenyl)-2-methylbenzofuran-3-yl)methoxy)-4-methoxyphenyl)acetic acid]",< 1 µM
17,"COc1ccc(CC(=O)O)c(OCc2c(C)oc3ccc(-c4cccc(CN)n4)cc23)c1 [Compound 245d, 2-(2-((5-(6-(aminomethyl)pyridin-2-yl)-2-methylbenzofuran-3-yl)methoxy)-4-methoxyphenyl)acetic acid]",< 1 µM
18,"CCCC(C(=O)O)c1ccccc1OCc1nn(C(C)C)c2ccc(-c3cccc(CN)c3)cc12 (stereo not shown) [Compound 246f, 2-(2-((5-(3-(aminomethyl)phenyl)-1-isopropyl-1H-indazol-3-yl)methoxy)phenyl)pentanoic acid]",1 to 10 µM
19,"COc1ccc(CC(=O)O)c(OCc2c(C3CC3)oc3ccc(-c4cccc(CN)c4)cc23)c1 [Compound 247c, 2-(2-((5-(3-(aminomethyl)phenyl)-2-cyclopropylbenzofuran-3-yl)methoxy)-4-methoxyphenyl)acetic acid]",< 1 µM

# Results, then the compound that gave them:
row,IC50,Structure (SMILES)
1,< 1 µM,"NCc1cccc(-c2cc(OCCF)c3occ(COc4ccccc4CC(=O)O)c3c2)c1 [Compound 248f, 2-(2-((5-(3-(aminomethyl)phenyl)-7-(2-fluoroethoxy)benzofuran-3-yl)methoxy)phenyl)acetic acid]"
2,< 1 µM,"NCc1cccc(-c2cc(OCCC3CCOCC3)c3occ(COc4ccccc4CC(=O)O)c3c2)c1 [Compound 249f, 2-(2-((5-(3-(aminomethyl)phenyl)-7-(2-(tetrahydro-2H-pyran-4-yl)ethoxy)benzofuran-3-yl)methoxy)phenyl)acetic acid]"
3,< 1 µM,"NCc1cccc(-c2cc(OCCN3CCOCC3)c3occ(COc4ccccc4CC(=O)O)c3c2)c1 [Compound 250f, 2-(2-((5-(3-(aminomethyl)phenyl)-7-(2-morpholinoethoxy)benzofuran-3-yl)methoxy)phenyl)acetic acid]"
4,< 1 µM,"COc1ccc(CC(=O)O)c(OCc2coc3c(OC)cc(-c4cccc(CN)c4)cc23)c1 [Compound 251c, 2-(2-((5-(3-(aminomethyl)phenyl)-7-methoxybenzofuran-3-yl)methoxy)-4-methoxyphenyl)acetic acid]"
5,< 1 µM,"COc1cc(-c2cccc(CN)c2)cc2c(COc3cc(C)ccc3CC(=O)O)coc12 [Compound 252c, 2-(2-((5-(3-(aminomethyl)phenyl)-7-methoxybenzofuran-3-yl)methoxy)-4-methylphenyl)acetic acid]"
6,< 1 µM,"COc1ccc(CC(=O)O)c(OCc2coc3c(C)cc(-c4cccc(CN)c4)cc23)c1 [Compound 253c, 2-(2-((5-(3-(aminomethyl)phenyl)-7-methylbenzofuran-3-yl)methoxy)-4-methoxyphenyl)acetic acid]"
7,< 1 µM,"Cc1ccc(CC(=O)O)c(OCc2nn(C(C)C)c3ccc(-c4cccc(CN)c4)cc23)c1 [Compound 254c, 2-(2-((5-(3-(aminomethyl)phenyl)-1-isopropyl-1H-indazol-3-yl)methoxy)-4-methylphenyl)acetic acid]"
8,< 1 µM,"COc1ccc(CC(=O)O)c(OCc2c3cc(-c4cccc(CN)c4)ccc3nn2C(C)C)c1 [Compound 255c, 2-(2-((5-(3-(aminomethyl)phenyl)-2-isopropyl-2H-indazol-3-yl)methoxy)-4-methoxyphenyl)acetic acid]"
9,< 1 µM,"Cc1ccc(CC(=O)O)c(OCc2c3cc(-c4cccc(CN)c4)ccc3nn2C(C)C)c1 [Compound 256c, 2-(2-((5-(3-(aminomethyl)phenyl)-2-isopropyl-2H-indazol-3-yl)methoxy)-4-methylphenyl)acetic acid]"
10,< 1 µM,"NCc1cccc(-c2cc(C(O)C(F)(F)F)c3occ(COc4ccccc4CC(=O)O)c3c2)c1 (stereo not shown) [Compound 257h, 2-(2-((5-(3-(aminomethyl)phenyl)-7-(2,2,2-trifluoro-1-hydroxyethyl)benzofuran-3-yl)methoxy)phenyl)acetic acid]"
11,< 1 µM,"NCc1cccc(-c2ccc3c(c2)c(COc2ccccc2CC(=O)O)nn3CC2CC2)c1 [Compound 258f, 2-(2-((5-(3-(aminomethyl)phenyl)-1-(cyclopropylmethyl)-1H-indazol-3-yl)methoxy)phenyl)acetic acid]"
12,< 1 µM,"NCc1cccc(-c2ccc3c(c2)c(COc2ccccc2CC(=O)O)nn3C2CCCCC2)c1 [Compound 259c, 2-(2-((5-(3-(aminomethyl)phenyl)-1-cyclohexyl-1H-indazol-3-yl)methoxy)phenyl)acetic acid]"
13,< 1 µM,"NCc1cccc(-c2ccc3c(c2)c(COc2ccccc2CC(=O)O)nn3C2CC2)c1 [Compound 260c, 2-(2-((5-(3-(aminomethyl)phenyl)-1-cyclopropyl-1H-indazol-3-yl)methoxy)phenyl)acetic acid]"
14,< 1 µM,"CN(Cc1cc(-c2cccc(CN)c2)cc2c(COc3ccccc3CC(=O)O)coc12)C1CC1 [Compound 261e, 2-(2-((5-(3-(aminomethyl)phenyl)-7-((cyclopropyl(methyl)amino)methyl)benzofuran-3-yl)methoxy)phenyl)acetic acid]"
15,< 1 µM,"NCc1cccc(-c2cc(C(F)F)c3occ(COc4ccccc4CC(=O)O)c3c2)c1 [Compound 262e, 2-(2-((5-(3-(aminomethyl)phenyl)-7-(difluoromethyl)benzofuran-3-yl)methoxy)phenyl)acetic acid]"
